The text below walks through data of US11731956B2, “Substituted 1,2,4-triazoles as intermediates in the synthesis of TYK2 inhibitors” (Alumis Inc., priority 2018, dated 2023).

As a reminder, the Cmax is the highest concentration seen after dosing. By Tmax is commonly meant the time at which the peak concentration occurs. As a reminder, the AUC is the area under the concentration-time curve, a measure of exposure. A lower AUC goes with low exposure. The term bioavailability denotes the share of a dose that reaches the circulation, judged against a reference dose that is usually intravenous. Low values mean poor availability, high ones good availability. Usually half-life stands for how long it takes for the measured level to halve. High values mean slow decline, low ones rapid decline. A word on the clearance: it is the volume of plasma or blood freed of the substance per unit of time. A lower clearance goes with a low capacity for elimination. One may read the Vdss as a proportionality between amount in the body and measured concentration, not a real space. Read a low Vdss as confinement near the circulation.

Data set [1] in a line: Pharmacokinetic study in Sprague Dawley rats. The format is in vivo. The settings on record: rat, plasma. The method, then: (§1) The pharmacokinctics of test compounds were evaluated in male C57BL/6 mice, Sprague Dawley rats, Beagle dogs, and cynomolgus monkeys when administered via oral gavage and IV injection. The animals were fasted overnight before administration. Plasma samples were collected predose and at 0.5, 1, 3, 6, 9, 12, and 24 hours postdose. The samples were analyzed by LC/MS/MS and the concentration of test compound at each timepoint was determined by linear regression. Pharmacokinetic parameters were calculated from the plasma concentrations using Pheonix WinNonlin.

The nature of data set [2]: Pharmacokinetic study in Beagle dogs. It is filed as in vivo. The conditions noted are these: dog, plasma. The method, then: as §1
Data set [3] in a line: Pharmacokinetic study in cynomolgus monkeys. The format is in vivo. The method, then:
as §1

Data set [4] is described as follows: Pharmacokinetic study in C57BL/6 mice. It is filed as in vivo, male C57BL/6 mice. The procedure: as §1
[5] abbreviates: Oral (2 mg/kg), NA: no detectable.
Setting [6] is: cynomolgus monkey, plasma, iv, I.V. (1 mg/kg).
The mark [7] stands for this setting: male, mouse, plasma, Oral (10 mg/kg).
Where [8] appears, read: male, mouse, plasma, iv, I.V. (2 mg/kg).
Where [9] appears, read: iv, I.V. (1 mg/kg), read-out: Vdss.
Where [10] appears, read: cynomolgus monkey, plasma, Oral (2 mg/kg), NA: no detectable.

`[2H]C([2H])([2H])CC(=O)c1cnc(Nc2ccc(C(C)(C)O)c(F)n2)cc1Nc1nccc(-c2ncn(C([2H])([2H])[2H])n2)c1OC` [Example 201]: the C0 in data set [1] (iv, I.V. (1 mg/kg)) turned out to be 1190 ± 116 ng/mL. Further, the C0 in data set [2] (iv, I.V. (1 mg/kg)) came to 458 ± 336 ng/mL. Moreover, in data set [3] (setting [5]), the Cmax came to 13.9 ± 2 ng/mL, the F % was found to be 4.67 ± 1.5% and the Tmax amounted to 2.33 ± 1.5 h. This compound yielded a C0 in data set [3] (setting [6]) of 849 ± 50 ng/mL.
Consider `[2H]C([2H])([2H])NC(=O)c1nnc(NC(=O)C2CC2)cc1Nc1cccc(-c2ncn(C)n2)c1OC` [control, BMS-986165, reference compound], for which the AUC amounted to 8870 ng·h/mL in data set [4] (setting [7]); 2040 ng·h/mL in data set [4] (setting [8]); 3200 ± 600 ng·h/mL in data set [1] (Oral (5 mg/kg)); 1970 ± 166 ng·h/mL in data set [1] (iv, I.V. (1 mg/kg)); 1310 ± 579 ng·h/mL in data set [2] (Oral (2 mg/kg)); 1900 ± 349 ng·h/mL in data set [2] (iv, I.V. (1 mg/kg)). For the same compound, the AUC in data set [3] (setting [10]) was found to be 3190 ± 1630 ng·h/mL; in data set [3] (setting [6]), 5740 ± 1170 ng·h/mL. For the same compound, the bioavailability in data set [4] (setting [7]) was 86.7%; in data set [1] (Oral (5 mg/kg)), 32.6 ± 5.4%; in data set [2] (Oral (2 mg/kg)), 35.5 ± 15%; in data set [3] (setting [10]), 27.8 ± 14%. Besides, the half-life in data set [4] (setting [7]) was 2.96 h; in data set [4] (setting [8]), 2.19 h; in data set [1] (Oral (5 mg/kg)) it was 2.93 ± 1.2 h; in data set [1] (iv, I.V. (1 mg/kg)), 2.42 ± 1.7 h; in data set [2] (Oral (2 mg/kg)), 6.21 ± 2.9 h; in data set [2] (iv, I.V. (1 mg/kg)), 4.43 ± 0.87 h. In addition, the values for the half-life in data set [3] (setting [10]) and in data set [3] (setting [6]) were 10.6 ± 3.8 h and 7.54 ± 1.6 h, respectively. Moreover, the Cmax in data set [4] (male, mouse, plasma, Oral (10 mg/kg), read-out: Cmax) came out at 4700 ng/mL; in data set [1] (Oral (5 mg/kg)), 792 ± 260 ng/mL; in data set [2] (Oral (2 mg/kg)), 222 ± 46 ng/mL; in data set [3] (cynomolgus monkey, plasma, Oral (2 mg/kg), NA: no detectable, read-out: Cmax), 247 ± 136 ng/mL. Also, the Tmax in data set [4] (male, mouse, plasma, Oral (10 mg/kg), read-out: Tmax) is 0.25 h; in data set [1] (Oral (5 mg/kg)) it was 1 ± 0.87 h; in data set [2] (Oral (2 mg/kg)), 1.67 ± 0.58 h; in data set [3] (cynomolgus monkey, plasma, Oral (2 mg/kg), NA: no detectable, read-out: Tmax), 5.33 ± 1.2 h. Besides, the C0 in data set [4] (setting [8]) was found to be 3220 ng/mL; in data set [1] (iv, I.V. (1 mg/kg)), 1740 ± 276 ng/mL; in data set [2] (iv, I.V. (1 mg/kg)), 559 ± 34 ng/mL; in data set [3] (setting [6]), 1420 ± 264 ng/mL. Besides, the clearance in data set [4] (setting [8]) is 15.6 mL/min/kg; in data set [1] (iv, I.V. (1 mg/kg)), 8.41 ± 0.7 mL/min/kg; in data set [2] (iv, I.V. (1 mg/kg)) it was 8.85 ± 1.7 mL/min/kg; in data set [3] (setting [6]), 2.79 ± 0.74 mL/min/kg. Also, the Vd in data set [4] (male, mouse, plasma, iv, I.V. (2 mg/kg), read-out: Vdss) amounted to 1.56 L/kg; in data set [1] (setting [9]), 0.933 ± 0.12 L/kg; in data set [2] (setting [9]), 2.27 ± 0.23 L/kg; in data set [3] (cynomolgus monkey, plasma, iv, I.V. (1 mg/kg), read-out: Vdss), 1.2 ± 0.042 L/kg.
As to `[2H]C([2H])([2H])CC(=O)c1cnc(Nc2cccc(C#N)n2)cc1Nc1nccc(-c2ncn(C([2H])([2H])[2H])n2)c1OC` [Example 199], the C0 in data set [1] (iv, I.V. (1 mg/kg)) turned out to be 414 ± 56 ng/mL; in data set [2] (iv, I.V. (1 mg/kg)) it was 334 ± 96 ng/mL.
With `[2H]C([2H])([2H])CC(=O)c1cnc(NC(=O)C2CC2)cc1Nc1nccc(-c2ncn(C([2H])([2H])[2H])n2)c1OC` [Example 200], the CL in data set [4] (I.V. (2 mg/kg)) is 7.35 mL · kg − 1 · min − 1. This compound came in with a Vdss in data set [4] (I.V. (2 mg/kg)) of 1.5 L/kg. In addition, the Cmax in data set [4] (Oral (10 mg/kg)) is 4193 ng/mL; in data set [3] (setting [5]), 384 ± 22 ng/mL. Besides, the values for the F % in data set [4] (Oral (10 mg/kg)) and in data set [3] (setting [5]) were 85.1% and 27.7 ± 1.7%, respectively. Also, the Tmax worked out at 0.250 h in data set [4] (Oral (10 mg/kg)) and 2.0 ± 0 h in data set [3] (setting [5]). Also, the AUC came out at 19300 ng·h/mL in data set [4] (setting [7]) and 4480 ng·h/mL in data set [4] (setting [8]). For the same compound, the C0 in data set [4] (setting [8]) came out at 2390 ng/mL; in data set [1] (iv, I.V. (1 mg/kg)), 1030 ± 47 ng/mL; in data set [2] (iv, I.V. (0.5 mg/kg)) it was 29.7 ± 14 ng/mL; in data set [3] (setting [6]), 677 ± 81 ng/mL. The compound also returned a clearance in data set [2] (iv, I.V. (0.5 mg/kg)) of 8.17 ± 2.6 mL/min/kg.
In data set [4] (I.V. (2 mg/kg)), `[2H]C([2H])([2H])CC(=O)c1cnc(Nc2ccc(C(C)(C)O)c(F)n2)cc1Nc1cccc(-c2ncn(C([2H])([2H])[2H])n2)c1OC` [Example 202] returned a CL of 17.3 mL · kg − 1 · min − 1 and a Vdss of 0.785 L/kg. In data set [4] (Oral (10 mg/kg)), the Cmax was found to be 1899 ng/mL, the F % was 66.6% and the Tmax was 0.500 h. The AUC in data set [4] (setting [7]) came to 6400 ng·h/mL. In data set [4] (setting [8]), this compound gave an exposure (AUC) of 1910 ng·h/mL and a C0 of 3340 ng/mL. In data set [1] (iv, I.V. (1 mg/kg)), this compound yielded a C0 of 1980 ± 101 ng/mL. Also, in data set [2] (iv, I.V. (1 mg/kg)), the C0 is 469 ± 255 ng/mL.
As for `[2H]C([2H])([2H])CC(=O)c1cnc(Nc2cccc(C#N)n2)cc1Nc1cccc(-c2ncn(C([2H])([2H])[2H])n2)c1OC` [Example 198], the C0 in data set [1] (iv, I.V. (1 mg/kg)) was 1200 ± 70 ng/mL; in data set [2] (iv, I.V. (1 mg/kg)), 182 ± 47.6 ng/mL; in data set [3] (setting [6]) it was 667 ± 82 ng/mL. The compound further displayed a maximum concentration (Cmax) in data set [3] (setting [5]) of 246 ± 124 ng/mL. Besides, in data set [3] (setting [5]), the F % came out at 59.4 ± 21.1%. Further, in data set [3] (setting [5]), the Tmax turned out to be 4 ± 0 h.
Take `[2H]C([2H])([2H])CC(=O)c1cnc(NC(=O)C2CC2)cc1Nc1cccc(-c2ncn(C([2H])([2H])[2H])n2)c1OC` [Example 195]: the CL in data set [4] (I.V. (2 mg/kg)) was 4.16 mL · kg − 1 · min − 1. In addition, in data set [4] (I.V. (2 mg/kg)), the Vdss is listed as 0.688 L/kg. The Cmax came to 4295 ng/mL in data set [4] (Oral (10 mg/kg)) and 663 ± 497 ng/mL in data set [3] (setting [5]). For the same compound, the values for the F % in data set [4] (Oral (10 mg/kg)) and in data set [3] (setting [5]) were 41.7% and 16.6 ± 9.95%, respectively. Moreover, the figures for the Tmax in data set [4] (Oral (10 mg/kg)) and in data set [3] (setting [5]) were 0.500 h and 4.0 ± 0 h, respectively. Further, the AUC in data set [4] (setting [7]) turned out to be 16700 ng·h/mL; in data set [4] (setting [8]), 7990 ng·h/mL. Further, the C0 turned out to be 2950 ng/mL in data set [4] (setting [8]); 2150 ± 123 ng/mL in data set [1] (iv, I.V. (1 mg/kg)); 185 ± 8.4 ng/mL in data set [2] (iv, I.V. (1 mg/kg)); 1290 ± 106 ng/mL in data set [3] (setting [6]).
With `[2H]C([2H])([2H])CC(=O)c1cnc(Nc2ccc(C(O)(C([2H])([2H])[2H])C([2H])([2H])[2H])c(F)n2)cc1Nc1ncccc1S(C)(=O)=O` [Example 203], in data set [3] (setting [6]), the C0 was 787 ± 61 ng/mL.
